The target of this test is T1, MLLT1 (Homo sapiens, UniProt Q03111).
T1 construct: endogenous in cells; host or cells: MV4-11 (ATCC CRL-9591)
T1 sequence (Q03111 1-559): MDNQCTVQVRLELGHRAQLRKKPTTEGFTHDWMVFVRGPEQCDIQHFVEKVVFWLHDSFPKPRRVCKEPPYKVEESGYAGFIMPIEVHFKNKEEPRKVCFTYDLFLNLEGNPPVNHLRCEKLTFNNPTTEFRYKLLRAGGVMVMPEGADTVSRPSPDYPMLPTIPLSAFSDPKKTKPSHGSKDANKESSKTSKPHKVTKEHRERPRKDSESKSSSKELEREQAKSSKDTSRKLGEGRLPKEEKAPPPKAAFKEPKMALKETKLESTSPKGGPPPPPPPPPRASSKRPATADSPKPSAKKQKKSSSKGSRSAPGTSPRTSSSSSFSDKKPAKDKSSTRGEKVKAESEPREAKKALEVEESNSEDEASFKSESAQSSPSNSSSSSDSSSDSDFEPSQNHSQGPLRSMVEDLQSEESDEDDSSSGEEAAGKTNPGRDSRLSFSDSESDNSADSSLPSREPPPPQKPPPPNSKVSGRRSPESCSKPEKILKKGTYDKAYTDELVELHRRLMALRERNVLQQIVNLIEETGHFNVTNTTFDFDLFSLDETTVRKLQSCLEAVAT
Kind of test: MLLT1 Degradation Assay (JESS automated chemiluminescent detection, MV4-11 cells). In kind it is cell-based. The note with it: 24h, with respect to DMSO control; for MLLT1 % Degradation @ 0.01 µM: 0.01 µM (10 nM) test compound; for MLLT1 % Degradation @ 0.1 µM: 0.1 µM (100 nM) test compound; for MLLT 1 % Degradation @ 1 µM: 1 µM (1000 nM) test compound. As for the experimental part: MLLT1 degradation efficacy of compounds were tested in an automated chemiluminescent detection system (JESS, Cat# 004-650). […] 10 mM DMSO stocks were prepared, and cells were treated with three concentrations of test compounds viz. 1000, 100 and 10 nM at a final DMSO concentration of 0.1% and incubated for 24h at 37°C, 5% CO2. […] Post run, data were analysed using "Compass for SW" software for chemiluminescent detection. The peak area for each band was used for the calculation of MLLT1 degradation with respect to DMSO control. Data is shown as "MLLT1 % degradation".

On to `CN1CCC[C@@H]1c1[nH]c2cc(NC(=O)CCCCCCC#Cc3cccc4c3CN(C3CCC(=O)NC3=O)C4=O)ncc2c1Cl` (stereo partly drawn) [Example 13, N-(3-chloro-2-((R)-1-methylpyrrolidin-2-yl)-1H-pyrrolo [3,2-c]pyridin-6-yl)-9-(2-(2,6-dioxopiperidin-3-yl)-1-oxoisoindolin-4-yl) non-8-ynamide], for which the “MLLT1 % Degradation @ 0.01 µM” value is recorded as “A (Category A: A ≥ 75% degradation)”, the “MLLT1 % Degradation @ 0.1 µM” value was “A (Category A: A ≥ 75% degradation)” and the “MLLT 1 % Degradation @ 1 µM” value was “A (Category A: A ≥ 75% degradation)”.

Consider `CN1CCC[C@@H]1c1cc2cnc(NC(=O)c3cccc(C4CCN(c5cccc6c5C(=O)N(C5CCC(=O)NC5=O)C6=O)CC4)c3)cc2[nH]1` (stereo partly drawn) [Example 14, 3-(1-(2-(2,6-dioxopiperidin-3-yl)-1,3-dioxoisoindolin-4-yl)piperidin-4-yl)-N-(2-((R)-1-methylpyrrolidin-2-yl)-1H-pyrrolo[3,2-c]pyridin-6-yl)benzamide], for which the “MLLT1 % Degradation @ 0.01 µM” value is “B (Category B: 50% ≤ B < 75% degradation)”, the “MLLT1 % Degradation @ 0.1 µM” value is given as “A (Category A: A ≥ 75% degradation)” and the “MLLT 1 % Degradation @ 1 µM” value is listed as “A (Category A: A ≥ 75% degradation)”.

Take `CN1CCC[C@@H]1c1cc2cnc(NC(=O)c3ccc(C4CCN(c5cccc6c5C(=O)N(C5CCC(=O)NC5=O)C6=O)CC4)cc3)cc2[nH]1` (stereo partly drawn) [Example 15, 4-(1-(2-(2,6-dioxopiperidin-3-yl)-1,3-dioxoisoindolin-4-yl)piperidin-4-yl)-N-(2-((R)-1-methylpyrrolidin-2-yl)-1H-pyrrolo[3,2-c]pyridin-6-yl)benzamide]: the “MLLT1 % Degradation @ 0.01 µM” value is “B (Category B: 50% ≤ B < 75% degradation)”, the “MLLT1 % Degradation @ 0.1 µM” value is reported as “A (Category A: A ≥ 75% degradation)” and the “MLLT 1 % Degradation @ 1 µM” value is given as “B (Category B: 50% ≤ B < 75% degradation)”.

Take `CN1CCC[C@@H]1c1cc2cnc(NC(=O)c3ccc(N4CCC(CC#Cc5cccc6c5CN(C5CCC(=O)NC5=O)C6=O)CC4)nc3)cc2[nH]1` (stereo partly drawn) [Example 16, 6-(4-(3-(2-(2,6-dioxopiperidin-3-yl)-1-oxoisoindolin-4-yl)prop-2-yn-1-yl)piperidin-1-yl)-N-(2-((R)-1-methylpyrrolidin-2-yl)-1H-pyrrolo[3,2-c]pyridin-6-yl)nicotinamide]: the “MLLT1 % Degradation @ 0.01 µM” value is “A (Category A: A ≥ 75% degradation)”, the “MLLT1 % Degradation @ 0.1 µM” value is recorded as “A (Category A: A ≥ 75% degradation)” and the “MLLT 1 % Degradation @ 1 µM” value is reported as “B (Category B: 50% ≤ B < 75% degradation)”.

Turning to `CN1CCC[C@@H]1c1cc2cnc(NC(=O)c3ccc(N4CCC(C#Cc5cccc6c5CN(C5CCC(=O)NC5=O)C6=O)CC4)nc3)cc2[nH]1` (stereo partly drawn) [Example 17, 6-(4-((2-(2,6-dioxopiperidin-3-yl)-1-oxoisoindolin-4-yl)ethynyl)piperidin-1-yl)-N-(2-((R)-1-methylpyrrolidin-2-yl)-1H-pyrrolo[3,2-c]pyridin-6-yl)nicotinamide], the “MLLT1 % Degradation @ 0.01 µM” value is “A (Category A: A ≥ 75% degradation)”, the “MLLT1 % Degradation @ 0.1 µM” value is given as “A (Category A: A ≥ 75% degradation)” and the “MLLT 1 % Degradation @ 1 µM” value was “A (Category A: A ≥ 75% degradation)”.

Turning to `CN1CCC[C@@H]1c1cc2cnc(NC(=O)c3ccc(N4CCC(OCC5CCN(c6cccc7c6C(=O)N(C6CCC(=O)NC6=O)C7=O)CC5)CC4)nc3)cc2[nH]1` (stereo partly drawn) [Example 18, 6-(4-((1-(2-(2,6-dioxopiperidin-3-yl)-1,3-dioxoisoindolin-4-yl)piperidin-4-yl)methoxy)piperidin-1-yl)-N-(2-((R)-1-methylpyrrolidin-2-yl)-1H-pyrrolo[3,2-c]pyridin-6-yl)nicotinamide], the “MLLT1 % Degradation @ 0.01 µM” value is recorded as “B (Category B: 50% ≤ B < 75% degradation)”, the “MLLT1 % Degradation @ 0.1 µM” value was “A (Category A: A ≥ 75% degradation)” and the “MLLT 1 % Degradation @ 1 µM” value is given as “A (Category A: A ≥ 75% degradation)”.

`CN1CCC[C@@H]1c1cc2cnc(NC(=O)c3ccc(OCCC#Cc4cccc5c4CN(C4CCC(=O)NC4=O)C5=O)cc3)cc2[nH]1` (stereo partly drawn) [Example 19, 4-((4-(2-(2,6-dioxopiperidin-3-yl)-1-oxoisoindolin-4-yl)but-3-yn-1-yl)oxy)-N-(2-((R)-1-methylpyrrolidin-2-yl)-1H-pyrrolo[3,2-c]pyridin-6-yl)benzamide]: the “MLLT1 % Degradation @ 0.01 µM” value is reported as “B (Category B: 50% ≤ B < 75% degradation)”, the “MLLT1 % Degradation @ 0.1 µM” value is listed as “A (Category A: A ≥ 75% degradation)” and the “MLLT 1 % Degradation @ 1 µM” value is listed as “A (Category A: A ≥ 75% degradation)”.

For the compound `CN1CCC[C@@H]1c1cc2cnc(NC(=O)c3ccc(-c4cnn(CCCC#Cc5cccc6c5CN(C5CCC(=O)NC5=O)C6=O)c4)cc3)cc2[nH]1` (stereo partly drawn) [Example 21, 4-(1-(5-(2-(2,6-dioxopiperidin-3-yl)-1-oxoisoindolin-4-yl)pent-4-yn-1-yl)-1H-pyrazol-4-yl)-N-(2-((R)-1-methylpyrrolidin-2-yl)-1H-pyrrolo[3,2-c]pyridin-6-yl)benzamide], the “MLLT1 % Degradation @ 0.01 µM” value is “A (Category A: A ≥ 75% degradation)”, the “MLLT1 % Degradation @ 0.1 µM” value was “A (Category A: A ≥ 75% degradation)” and the “MLLT 1 % Degradation @ 1 µM” value is reported as “B (Category B: 50% ≤ B < 75% degradation)”.

`CN1CCC[C@@H]1c1cc2cnc(NC(=O)c3ccc(-c4cnn(CCCC#Cc5ccc6c(c5)CN(C5CCC(=O)NC5=O)C6=O)c4)cc3)cc2[nH]1` (stereo partly drawn) [Example 22, 4-(1-(5-(2-(2,6-dioxopiperidin-3-yl)-1-oxoisoindolin-5-yl)pent-4-yn-1-yl)-1H-pyrazol-4-yl)-N-(2-((R)-1-methylpyrrolidin-2-yl)-1H-pyrrolo[3,2-c]pyridin-6-yl)benzamide]: the “MLLT1 % Degradation @ 0.01 µM” value was “A (Category A: A ≥ 75% degradation)”, the “MLLT1 % Degradation @ 0.1 µM” value was “A (Category A: A ≥ 75% degradation)” and the “MLLT 1 % Degradation @ 1 µM” value was “A (Category A: A ≥ 75% degradation)”.

For the compound `CN1CCC[C@@H]1c1cc2cnc(NC(=O)c3ccc(OCC#Cc4cccc5c4CN(C4CCC(=O)NC4=O)C5=O)c(Cl)c3)cc2[nH]1` (stereo partly drawn) [Example 23, 3-chloro-4-((3-(2-(2,6-dioxopiperidin-3-yl)-1-oxoisoindolin-4-yl)prop-2-yn-1-yl)oxy)-N-(2-((R)-1-methylpyrrolidin-2-yl)-1H-pyrrolo[3,2-c]pyridin-6-yl)benzamide], the “MLLT1 % Degradation @ 0.01 µM” value was “C (Category C: 25% ≤ C < 50% degradation)”, the “MLLT1 % Degradation @ 0.1 µM” value is reported as “C (Category C: 25% ≤ C < 50% degradation)” and the “MLLT 1 % Degradation @ 1 µM” value is recorded as “C (Category C: 25% ≤ C < 50% degradation)”.

As for `C[C@@H](C#Cc1cccc2c1CN(C1CCC(=O)NC1=O)C2=O)Oc1ccc(C(=O)Nc2cc3[nH]c([C@H]4CCCN4C)cc3cn2)cc1` (stereo partly drawn) [Example 24, 4-(((2S)-4-(2-(2,6-dioxopiperidin-3-yl)-1-oxoisoindolin-4-yl)but-3-yn-2-yl)oxy)-N-(2-((R)-1-methylpyrrolidin-2-yl)-1H-pyrrolo[3,2-c]pyridin-6-yl)benzamide], the “MLLT1 % Degradation @ 0.01 µM” value is recorded as “A (Category A: A ≥ 75% degradation)”, the “MLLT1 % Degradation @ 0.1 µM” value is “A (Category A: A ≥ 75% degradation)” and the “MLLT 1 % Degradation @ 1 µM” value was “A (Category A: A ≥ 75% degradation)”.

The values above are taken from patent EP4667467A1, “PROTAC DEGRADERS OF MLLT1 AND/OR MLLT3” (Dark Blue Therapeutics Ltd, priority 2024, dated 2025).
